According to the NIST ThermoML archive (doi:10.1021/je060158k):

Details: 100 kPa, Liquid, Capillary tube (Ostwald / Ubbelohde) method

CCCCCCCCCCl [1-chlorononane]
Details | kinematic viscosity [m2/s]
296.21 K | 1.68e-06
300.65 K | 1.57e-06
313.15 K | 1.3e-06
318.15 K | 1.21e-06
323.15 K | 1.13e-06
328.15 K | 1.07e-06
333.15 K | 1e-06
338.15 K | 9.48e-07
343.15 K | 8.97e-07
348.15 K | 8.52e-07
353.15 K | 8.09e-07
358.15 K | 7.72e-07
363.15 K | 7.37e-07
368.15 K | 7.04e-07
373.15 K | 6.73e-07
383.15 K | 6.19e-07
393.15 K | 5.72e-07
403.15 K | 5.31e-07
413.15 K | 4.94e-07

CCCCCCCI [1-iodoheptane]
Details | kinematic viscosity [m2/s]
296.35 K | 1.18e-06
297.2 K | 1.17e-06
303.5 K | 1.06e-06
313.2 K | 9.24e-07
318.15 K | 8.67e-07
323.15 K | 8.12e-07
328.15 K | 7.66e-07
333.15 K | 7.25e-07
338.15 K | 6.87e-07
343.15 K | 6.53e-07
348.15 K | 6.2e-07
353.15 K | 5.91e-07
363.15 K | 5.41e-07
368.15 K | 5.17e-07
373.15 K | 4.98e-07
378.15 K | 4.76e-07
383.15 K | 4.58e-07
393.15 K | 4.24e-07
403.15 K | 3.96e-07
413.15 K | 3.7e-07
423.15 K | 3.46e-07

CCCCCCI [1-iodohexane]
Details | kinematic viscosity [m2/s]
297.25 K | 9.1e-07
298.15 K | 9.03e-07
298.25 K | 9e-07
300.25 K | 8.74e-07
318.15 K | 7.01e-07
319.15 K | 6.89e-07
323.15 K | 6.63e-07
328.15 K | 6.26e-07
333.15 K | 5.97e-07
338.15 K | 5.68e-07
343.15 K | 5.39e-07
348.15 K | 5.18e-07
358.15 K | 4.74e-07
368.15 K | 4.37e-07
383.15 K | 3.91e-07
393.15 K | 3.64e-07
413.15 K | 3.19e-07
423.15 K | 3.01e-07
